Laboratory results published in patent US20020111274A1, “1-alkyl-3-[1-(substituted phenyl) benzotriazol-6-yl] uracils” (BASF Aktiengesellschaft, priority 2000, published 2002).

Columns and labels:
Design in all cases: scale not given here
[1] = test system: ZEAMX Corn, Field; assay: Preemergence herbicidal evaluation, ZEAMX; assay type: in vivo, Zea mays, L. (Sammel-Bezeichnung); conditions: preemergence
In short: (§1)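 Compound applied preemergence as an aqueous acetone spray onto freshly planted cups, dose equivalent approx. 0.013 to 0.800 kg/ha. Evaluation by rating at weeks 4–5.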

[2] = test system: ABUTH Velvetleaf; assay: Postemergence herbicidal evaluation, ABUTH; assay type: in vivo, Abutilon theophrasti, Medic.; conditions: postemergence spray, rated about two-three weeks after treatment
In short: (§2)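 Visual injury rating ~2–3 wk post-spray; replicate tests averaged. Two-week-old seedlings; foliar spray at 40 psi; 0.006–0.400 kg ai/ha in 80/20 acetone/water + 1.0% methylated seed oil.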

[3] = test system: GALAP Galium; assay: Preemergence herbicidal evaluation, GALAP; assay type: in vivo, Galium aparine; conditions: preemergence
In short: as §1

[4] = test system: AMBEL Ragweed, Common; assay: Postemergence herbicidal evaluation, AMBEL; assay type: in vivo, Ambrosia artemisifolia, L.; conditions: postemergence spray, rated about two-three weeks after treatment
In short: as §2

[5] = test system: CHEAL Lambsquarters, Common; assay: Preemergence herbicidal evaluation, CHEAL; assay type: in vivo, Chenopodium album, L.; conditions: preemergence
In short: as §1

[6] = test system: ORYSAT Rice, Tebonnet; assay: Postemergence herbicidal evaluation, ORYSAT; assay type: in vivo, Oryza sativa, (L.); conditions: postemergence spray, rated about two-three weeks after treatment
In short: as §2

[7] = test system: TRZAWR Wheat, Winter, cv Riband; assay: Preemergence herbicidal evaluation, TRZAWR; assay type: in vivo, Triticum aestivum; conditions: preemergence
In short: as §1

[8] = test system: CASOB Sicklepod; assay: Postemergence herbicidal evaluation, CASOB; assay type: in vivo, Cassia obtusifolia, L.; conditions: postemergence spray, rated about two-three weeks after treatment
In short: as §2

[9] = test system: IPOHE Morningglory, Ivyleaf; assay: Postemergence herbicidal evaluation, IPOHE; assay type: in vivo, Ipomoea hederacea, (L.) Jacq.; conditions: postemergence spray, rated about two-three weeks after treatment
In short: as §2

[10] = test system: GALAP Galium; assay: Postemergence herbicidal evaluation, GALAP; assay type: in vivo, Galium aparine; conditions: postemergence spray, rated about two-three weeks after treatment
In short: as §2

[11] = test system: IPOHE Morningglory, Ivyleaf; assay: Preemergence herbicidal evaluation, IPOHE; assay type: in vivo, Ipomoea hederacea, (L.) Jacq.; conditions: preemergence
In short: as §1

[12] = test system: CHEAL Lambsquarters, Common; assay: Postemergence herbicidal evaluation, CHEAL; assay type: in vivo, Chenopodium album, L.; conditions: postemergence spray, rated about two-three weeks after treatment
In short: as §2

[13] = test system: TRZAWR Wheat, Winter, cv Riband; assay: Postemergence herbicidal evaluation, TRZAWR; assay type: in vivo, Triticum aestivum; conditions: postemergence spray, rated about two-three weeks after treatment
In short: as §2

[14] = test system: CASOB Sicklepod; assay: Preemergence herbicidal evaluation, CASOB; assay type: in vivo, Cassia obtusifolia, L.; conditions: preemergence
In short: as §1

[15] = test system: ECHOG Barnyardgrass; assay: Postemergence herbicidal evaluation, ECHOG; assay type: in vivo, Echinochloa crus-galli, (L.) Beau; conditions: postemergence spray, rated about two-three weeks after treatment
In short: as §2

[16] = test system: AMBEL Ragweed, Common; assay: Preemergence herbicidal evaluation, AMBEL; assay type: in vivo, Ambrosia artemisifolia, L.; conditions: preemergence
In short: as §1

[17] = test system: SETVI Foxtail, Green; assay: Preemergence herbicidal evaluation, SETVI; assay type: in vivo, Setaria viridis, (L.) Beau; conditions: preemergence
In short: as §1

[18] = test system: ECHOG Barnyardgrass; assay: Preemergence herbicidal evaluation, ECHOG; assay type: in vivo, Echinochloa crus-galli, (L.) Beau; conditions: preemergence
In short: as §1

[19] = test system: GLXMAW Soybean, Williams; assay: Preemergence herbicidal evaluation, GLXMAW; assay type: in vivo, Glycine max, (L.) Merr. cv Williams; conditions: preemergence
In short: as §1

[20] = test system: ABUTH Velvetleaf; assay: Preemergence herbicidal evaluation, ABUTH; assay type: in vivo, Abutilon theophrasti, Medic.; conditions: preemergence
In short: as §1

[21] = test system: ZEAMX Corn, Field; assay: Postemergence herbicidal evaluation, ZEAMX; assay type: in vivo, Zea mays, L. (Sammel-Bezeichnung); conditions: postemergence spray, rated about two-three weeks after treatment
In short: as §2

[22] = test system: ORYSAT Rice, Tebonnet; assay: Preemergence herbicidal evaluation, ORYSAT; assay type: in vivo, Oryza sativa, (L.); conditions: preemergence
In short: as §1

[23] = test system: GLXMAW Soybean, Williams; assay: Postemergence herbicidal evaluation, GLXMAW; assay type: in vivo, Glycine max, (L.) Merr. cv Williams; conditions: postemergence spray, rated about two-three weeks after treatment
In short: as §2

[24] = test system: SETVI Foxtail, Green; assay: Postemergence herbicidal evaluation, SETVI; assay type: in vivo, Setaria viridis, (L.) Beau; conditions: postemergence spray, rated about two-three weeks after treatment
In short: as §2

Cc1ccc(OCC(=O)O)cc1-n1nnc2cc(F)c(-n3c(=O)cc(C(F)(F)F)n(C)c3=O)cc21 [Example 37]
ZEAMX herbicidal rating ([1]; rate 0.016 kg/ha): 0.0 | ZEAMX herbicidal rating ([1]; rate 0.032 kg/ha): 0.0 | ZEAMX herbicidal rating ([1]; rate 0.062 kg/ha): 0.0 | ZEAMX herbicidal rating ([1]; rate 0.125 kg/ha): 0.0 | Postemergence herbicidal rating ABUTH ([2]; 0.008 kg/ha): 0.0 | Postemergence herbicidal rating ABUTH ([2]; 0.016 kg/ha): 3.0 | Postemergence herbicidal rating ABUTH ([2]; 0.032 kg/ha): 5.0 | Postemergence herbicidal rating ABUTH ([2]; 0.062 kg/ha): 9.0 | GALAP herbicidal rating ([3]; rate 0.016 kg/ha): 0.0 | GALAP herbicidal rating ([3]; rate 0.032 kg/ha): 0.0 | GALAP herbicidal rating ([3]; rate 0.062 kg/ha): 0.0 | GALAP herbicidal rating ([3]; rate 0.125 kg/ha): 0.0 | Postemergence herbicidal rating AMBEL ([4]; 0.008 kg/ha): 0.0 | Postemergence herbicidal rating AMBEL ([4]; 0.016 kg/ha): 4.0 | Postemergence herbicidal rating AMBEL ([4]; 0.032 kg/ha): 9.0 | Postemergence herbicidal rating AMBEL ([4]; 0.062 kg/ha): 9.0 | CHEAL herbicidal rating ([5]; rate 0.062 kg/ha): 0.0 | CHEAL herbicidal rating ([5]; rate 0.125 kg/ha): 9.0 | Postemergence herbicidal rating ORYSAT ([6]; 0.008 kg/ha): 0.5 | Postemergence herbicidal rating ORYSAT ([6]; 0.016 kg/ha): 1.0 | Postemergence herbicidal rating ORYSAT ([6]; 0.032 kg/ha): 3.5 | Postemergence herbicidal rating ORYSAT ([6]; 0.062 kg/ha): 7.5 | TRZAWR herbicidal rating ([7]; rate 0.016 kg/ha): 0.0 | TRZAWR herbicidal rating ([7]; rate 0.032 kg/ha): 0.0 | TRZAWR herbicidal rating ([7]; rate 0.062 kg/ha): 0.0 | TRZAWR herbicidal rating ([7]; rate 0.125 kg/ha): 0.0 | Postemergence herbicidal rating CASOB ([8]; 0.008 kg/ha): 0.0 | Postemergence herbicidal rating CASOB ([8]; 0.016 kg/ha): 0.0 | Postemergence herbicidal rating CASOB ([8]; 0.032 kg/ha): 0.0 | Postemergence herbicidal rating CASOB ([8]; 0.062 kg/ha): 0.0 | Postemergence herbicidal rating IPOHE ([9]; 0.008 kg/ha): 3.0 | Postemergence herbicidal rating IPOHE ([9]; 0.016 kg/ha): 9.0 | Postemergence herbicidal rating IPOHE ([9]; 0.032 kg/ha): 9.0 | Postemergence herbicidal rating IPOHE ([9]; 0.062 kg/ha): 9.0 | Postemergence herbicidal rating GALAP ([10]; 0.008 kg/ha): 0.0 | Postemergence herbicidal rating GALAP ([10]; 0.016 kg/ha): 0.0 | Postemergence herbicidal rating GALAP ([10]; 0.032 kg/ha): 0.0 | Postemergence herbicidal rating GALAP ([10]; 0.062 kg/ha): 2.0 | IPOHE herbicidal rating ([11]; rate 0.016 kg/ha): 0.0 | IPOHE herbicidal rating ([11]; rate 0.032 kg/ha): 0.0 | IPOHE herbicidal rating ([11]; rate 0.062 kg/ha): 0.0 | IPOHE herbicidal rating ([11]; rate 0.125 kg/ha): 5.0 | Postemergence herbicidal rating CHEAL ([12]; 0.008 kg/ha): 0.0 | Postemergence herbicidal rating CHEAL ([12]; 0.016 kg/ha): 0.0 | Postemergence herbicidal rating CHEAL ([12]; 0.032 kg/ha): 4.0 | Postemergence herbicidal rating CHEAL ([12]; 0.062 kg/ha): 4.0 | Postemergence herbicidal rating TRZAWR ([13]; 0.008 kg/ha): 3.5 | Postemergence herbicidal rating TRZAWR ([13]; 0.016 kg/ha): 5.5 | Postemergence herbicidal rating TRZAWR ([13]; 0.032 kg/ha): 5.5 | Postemergence herbicidal rating TRZAWR ([13]; 0.062 kg/ha): 7.0 | CASOB herbicidal rating ([14]; rate 0.016 kg/ha): 0.0 | CASOB herbicidal rating ([14]; rate 0.032 kg/ha): 0.0 | CASOB herbicidal rating ([14]; rate 0.062 kg/ha): 0.0 | CASOB herbicidal rating ([14]; rate 0.125 kg/ha): 0.0 | Postemergence herbicidal rating ECHCG ([15]; 0.008 kg/ha): 0.0 | Postemergence herbicidal rating ECHCG ([15]; 0.016 kg/ha): 0.0 | Postemergence herbicidal rating ECHCG ([15]; 0.032 kg/ha): 2.0 | Postemergence herbicidal rating ECHCG ([15]; 0.062 kg/ha): 3.0 | AMBEL herbicidal rating ([16]; rate 0.016 kg/ha): 0.0 | AMBEL herbicidal rating ([16]; rate 0.032 kg/ha): 0.0 | AMBEL herbicidal rating ([16]; rate 0.062 kg/ha): 0.0 | AMBEL herbicidal rating ([16]; rate 0.125 kg/ha): 3.0 | SETVI herbicidal rating ([17]; rate 0.016 kg/ha): 0.0 | SETVI herbicidal rating ([17]; rate 0.032 kg/ha): 0.0 | SETVI herbicidal rating ([17]; rate 0.062 kg/ha): 0.0 | SETVI herbicidal rating ([17]; rate 0.125 kg/ha): 8.0 | ECHCG herbicidal rating ([18]; rate 0.016 kg/ha): 0.0 | ECHCG herbicidal rating ([18]; rate 0.032 kg/ha): 0.0 | ECHCG herbicidal rating ([18]; rate 0.062 kg/ha): 0.0 | ECHCG herbicidal rating ([18]; rate 0.125 kg/ha): 0.0 | GLXMAW herbicidal rating ([19]; rate 0.016 kg/ha): 0.0 | GLXMAW herbicidal rating ([19]; rate 0.032 kg/ha): 0.0 | GLXMAW herbicidal rating ([19]; rate 0.062 kg/ha): 0.0 | GLXMAW herbicidal rating ([19]; rate 0.125 kg/ha): 0.0 | ABUTH herbicidal rating ([20]; rate 0.016 kg/ha): 0.0 | ABUTH herbicidal rating ([20]; rate 0.032 kg/ha): 0.0 | ABUTH herbicidal rating ([20]; rate 0.062 kg/ha): 9.0 | ABUTH herbicidal rating ([20]; rate 0.125 kg/ha): 9.0 | Postemergence herbicidal rating ZEAMX ([21]; 0.008 kg/ha): 7.0 | Postemergence herbicidal rating ZEAMX ([21]; 0.016 kg/ha): 7.5 | Postemergence herbicidal rating ZEAMX ([21]; 0.032 kg/ha): 7.5 | Postemergence herbicidal rating ZEAMX ([21]; 0.062 kg/ha): 8.0 | ORYSAT herbicidal rating ([22]; rate 0.016 kg/ha): 0.0 | ORYSAT herbicidal rating ([22]; rate 0.032 kg/ha): 0.0 | ORYSAT herbicidal rating ([22]; rate 0.062 kg/ha): 0.0 | ORYSAT herbicidal rating ([22]; rate 0.125 kg/ha): 0.0 | Postemergence herbicidal rating GLXMAW ([23]; 0.008 kg/ha): 3.5 | Postemergence herbicidal rating GLXMAW ([23]; 0.016 kg/ha): 4.0 | Postemergence herbicidal rating GLXMAW ([23]; 0.032 kg/ha): 6.5 | Postemergence herbicidal rating GLXMAW ([23]; 0.062 kg/ha): 7.0 | Postemergence herbicidal rating SETVI ([24]; 0.008 kg/ha): 0.0 | Postemergence herbicidal rating SETVI ([24]; 0.016 kg/ha): 0.0 | Postemergence herbicidal rating SETVI ([24]; 0.032 kg/ha): 7.0 | Postemergence herbicidal rating SETVI ([24]; 0.062 kg/ha): 9.0
